# Assay results: patent US7655768B2, “Galactose derivative, drug carrier and medicinal composition” (Nippon Shinyaku Co., Ltd., priority 2004, dated 2010)
# Test system: HuH-7 cells (human hepatoma cell line)
# Assay: Expression efficiency of luciferase plasmid DNA delivered by carrier compositions in HuH-7 cells
# Assay type: cell-based
# Details: 24 hours after addition of composition, carriers of Examples 9 to 13 with rising content of the Example 2 derivative, compared with carrier of Comparative Example 1, FIG. 1
# Procedure: By adding 50 μL of 10% maltose solution to 1 μg of the plasmid DNA encording luciferase gene, 50 μL of the plasmid solution containing the plasmid at 20 μg/mL was prepared. In addition, by adding 44 μL of 10% maltose solution to 6 μL of the dispersion liquid of the carrier according to Example 9 to 13 or Comparative Example 1, 50 μL of the diluted solution of the carrier at 600 μg/mL was prepared.
# 50 μL of the above nucleic acid solution was added to 50 μL of the above diluted solution of the carrier, and then mixed gently. Then, the sample was left at room temperature for 15 minutes to prepare 100 μL of the composition solution containing the above plasmid at 10 μg/mL.
# HuH-7 cells (human hepatoma cell line) were seeded on a 96-well plate at 1×10^4 cells/well, and were incubated for 18 hours at 37° C. under 5% CO2. Then, 10 μL of the composition containing the carrier according to Example 9 to 13 or Comparative Example 1 prepared above (1) was added per well, and incubation was further continued. After 24 hours from addition of the composition, luciferase activity was measured. Luciferase activity was measured by detecting the bioluminescence with Top Count (manufactured by Packard), using Steady Glo Luciferase Assay System (manufactured by Promega). Meanwhile, a comparative control was a cell given the composition containing the carrier according to Comparative Example 1.
smiles,measurement,value
"CCCCCCCC/C=C\CCCCCCCC(=O)OC[C@H](COP(=O)(O)OCCOCCOCCOCCOCCNC[C@H](O)[C@@H](O)[C@H](O[C@@H]1O[C@H](CO)[C@H](O)[C@H](O)[C@H]1O)[C@H](O)CO)OC(=O)CCCCCCC/C=C\CCCCCCCC [Example 2, L-α-dioleoylphosphatidyl{14-N-(1-deoxylactito-1-yl)amino-3,6,9,12-tetraoxa}tetradecanol]",expression efficiency of luciferase gene (luciferase activity),increased as compared with that in the comparative control as a function of concentration of the derivative of the present invention
